Source: the supplement of paper PMC10307832

Experiments:
Assay in all cases: relative viability (nuclei count vs DMSO), 5 days (fraction); higher = more cells survive
ChaGo-K-1 = tested on: ChaGo-K-1
How it was run: (§1)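 Five library-drug doses in √10 steps were combined with a fixed anchor-drug dose, or a single drug was given alone, by pin tool to lung cancer cell lines in 1536-well plates the day after seeding. Nuclei were stained and counted after 5 days. Relative viability is the nuclei count in treated wells over that in vehicle wells, taken as the median of duplicate plates.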

NCI-H727 = tested on: NCI-H727
How it was run: as §1

HCC-827 = tested on: HCC-827
How it was run: as §1

SK-MES-1 = tested on: SK-MES-1
How it was run: as §1

EMC-BAC-2 = tested on: EMC-BAC-2
How it was run: as §1

NCI-H2126 = tested on: NCI-H2126
How it was run: as §1

HCC-78 = tested on: HCC-78
How it was run: as §1

COR-L 105 = tested on: COR-L 105
How it was run: as §1

LU99A = tested on: LU99A
How it was run: as §1

LOU-NH91 = tested on: LOU-NH91
How it was run: as §1

EPLC-272H = tested on: EPLC-272H
How it was run: as §1

NCI-H1734 = tested on: NCI-H1734
How it was run: as §1

`O=C(O)CCCCC(CCSCc1ccccc1)SCc1ccccc1` (stereo unspecified) [CPI-613] + O=C(c1cc(Cc2n[nH]c(=O)c3ccccc23)ccc1F)N1CCN(C(=O)C2CC2)CC1 [Olaparib] (partner 8 µM) gave a relative viability (ChaGo-K-1; first compound 5 µM) of 0.4, a relative viability (ChaGo-K-1; first compound 15.81 µM) of 0.411 and a relative viability (ChaGo-K-1; first compound 50 µM) of 0.412. It also gave a relative viability (ChaGo-K-1; first compound 158.11 µM) of 0.319, a relative viability (ChaGo-K-1; first compound 500 µM) of 0.251 and a relative viability (NCI-H727; first compound 5 µM) of 0.783. The relative viability (NCI-H727; first compound 15.81 µM) was 0.672, the relative viability (NCI-H727; first compound 50 µM) was 0.631 and the relative viability (NCI-H727; first compound 158.11 µM) was 0.748. The relative viability (NCI-H727; first compound 500 µM) was 0.678, the relative viability (HCC-827; first compound 5 µM) was 0.558 and the relative viability (HCC-827; first compound 15.81 µM) was 0.602. For the same compound, the relative viability (HCC-827; first compound 50 µM) was 0.691, the relative viability (HCC-827; first compound 158.11 µM) was 0.691 and the relative viability (HCC-827; first compound 500 µM) was 0.538. The relative viability (SK-MES-1; first compound 5 µM) was 0.641, the relative viability (SK-MES-1; first compound 15.81 µM) was 0.635 and the relative viability (SK-MES-1; first compound 50 µM) was 0.556. The relative viability (SK-MES-1; first compound 158.11 µM) was 0.163, the relative viability (SK-MES-1; first compound 500 µM) was 0.0936 and the relative viability (EMC-BAC-2; first compound 5 µM) was 0.508. For the same compound, the relative viability (EMC-BAC-2; first compound 15.81 µM) was 0.432, the relative viability (EMC-BAC-2; first compound 50 µM) was 0.484 and the relative viability (EMC-BAC-2; first compound 158.11 µM) was 0.199. For the same compound, the relative viability (EMC-BAC-2; first compound 500 µM) was 0.229, the relative viability (NCI-H2126; first compound 5 µM) was 0.904 and the relative viability (NCI-H2126; first compound 15.81 µM) was 1.07. The relative viability (NCI-H2126; first compound 50 µM) was 0.845, the relative viability (NCI-H2126; first compound 158.11 µM) was 0.757 and the relative viability (NCI-H2126; first compound 500 µM) was 0.128. The relative viability (HCC-78; first compound 15.81 µM) was 0.792, the relative viability (HCC-78; first compound 50 µM) was 0.857 and the relative viability (HCC-78; first compound 158.11 µM) was 0.842. For the same compound, the relative viability (HCC-78; first compound 500 µM) was 0.711, the relative viability (COR-L 105; first compound 5 µM) was 0.78 and the relative viability (COR-L 105; first compound 15.81 µM) was 0.685. The relative viability (COR-L 105; first compound 50 µM) was 0.739, the relative viability (COR-L 105; first compound 158.11 µM) was 0.268 and the relative viability (COR-L 105; first compound 500 µM) was 0.28. The relative viability (LU99A; first compound 5 µM) was 0.26, the relative viability (LU99A; first compound 15.81 µM) was 0.237 and the relative viability (LU99A; first compound 50 µM) was 0.242. For the same compound, the relative viability (LU99A; first compound 158.11 µM) was 0.127, the relative viability (LU99A; first compound 500 µM) was 0.161 and the relative viability (LOU-NH91; first compound 5 µM) was 0.883. For the same compound, the relative viability (LOU-NH91; first compound 15.81 µM) was 0.86, the relative viability (LOU-NH91; first compound 50 µM) was 0.867 and the relative viability (LOU-NH91; first compound 158.11 µM) was 0.442. It also gave a relative viability (LOU-NH91; first compound 500 µM) of 0.533, a relative viability (EPLC-272H; first compound 5 µM) of 0.812 and a relative viability (EPLC-272H; first compound 15.81 µM) of 0.683. The relative viability (EPLC-272H; first compound 50 µM) was 0.653, the relative viability (EPLC-272H; first compound 158.11 µM) was 0.198 and the relative viability (EPLC-272H; first compound 500 µM) was 0.083. For the same compound, the relative viability (NCI-H1734; first compound 5 µM) was 0.584 and the relative viability (NCI-H1734; first compound 15.81 µM) was 0.596.
